# Starred links: 1 amine or outer side, 2 acyl side, 3 side chain; linkers in the order of their positions; H or OH if unused. Non-standard residues stand in square brackets, D forms with d. Groups on a side chain read outwards from the residue. No end group written: not given here. *: point of attachment. γGlu = O=C(O)[C@H](CCC(=O)[*:2])N[*:1]; Palmitoyl = CCCCCCCCCCCCCCCC(=O)*; Aib = CC(C)(N)C(=O)O
# Tests used:
# [1] = Rate of dipeptide cleavage from model hexapeptide in PBS
# Experimental: The rate of cleavage was determined for the respective propeptides. The concentrations of the propeptides and the model parent peptide were determined by their respective peak areas. […] The slope of this plot provides the rate constant ‘k’.
# GLP-1 receptor = target: T1, GLP-1 receptor (Homo sapiens, UniProt P43220); test: cAMP synthesis luciferase reporter assay in HEK293 cells, GLP-1 receptor; format: cell-based; conditions: for EC50: read-out: Normalized GLP-1 EC50 (nM) MEAN, Table 4
# T1 construct: expressed in transfected cells; host or cells: HEK293
# T1 sequence (P43220 24-463, species assumed): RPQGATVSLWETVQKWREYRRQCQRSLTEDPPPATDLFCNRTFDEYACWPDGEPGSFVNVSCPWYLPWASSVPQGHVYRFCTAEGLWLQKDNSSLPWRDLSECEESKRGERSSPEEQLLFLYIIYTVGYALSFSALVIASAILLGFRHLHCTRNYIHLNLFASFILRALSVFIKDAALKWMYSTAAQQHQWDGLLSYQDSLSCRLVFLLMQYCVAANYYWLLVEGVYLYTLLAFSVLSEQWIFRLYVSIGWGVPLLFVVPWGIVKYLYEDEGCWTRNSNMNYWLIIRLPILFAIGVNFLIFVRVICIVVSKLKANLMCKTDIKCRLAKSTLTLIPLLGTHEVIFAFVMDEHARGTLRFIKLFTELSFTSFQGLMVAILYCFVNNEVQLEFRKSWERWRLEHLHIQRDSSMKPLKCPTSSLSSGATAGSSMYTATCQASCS
# Source text: (§1) Structures associated with the abbreviated lipidated groups designated in Table 4 are as follows: […]
# insulin receptor (IR-B) = target: T2, insulin receptor (IR-B) (Homo sapiens, UniProt P06213); test: In vitro activity at insulin B receptor (IR-B); format: cell-based; conditions: Table 4; read-out: Normalized IR-B EC50 (nM) MEAN
# T2 construct: expressed in transfected cells
# Experimental: Color development was stopped 5 min later by adding 0.05 ml 1 N HCl. Absorbance at 450 nm was measured on Titertek Multiscan MCC340 (ThermoFisher, Pittsburgh, Pa.). […] Structures associated with the abbreviated lipidated groups designated in Table 4 are as follows: […]
# diabetic mice [2] = test: Blood glucose, food intake and body weight in diabetic mice; format: in vivo; conditions: for blood glucose levels and duration of action: FIG. 15B; for body weight: FIG. 17D
# Experimental: Six- to eight-week-old male C57BL/6 mice were maintained at 23° C., constant humidity, and a 12-h light-dark cycle. The acute in vivo effects of select peptides were evaluated by subcutaneously injecting peptides solubilized in physiologically buffered saline or a vehicle control to normal or diabetic mice. Blood glucose was measured at various time points through the course of a 24 hr period following administration of the peptides. Each group of mice contained 8 animals per group. The average body weight was ˜25 g. Mice were made diabetic by administration of streptozotocin.
# Repeat daily subcutaneous administration of the peptides or vehicle control was administered to the mice for periods of five days to two weeks. The obese mice were given a diabetogenic diet Mice had free access to water and were fed ad libitum with a high fat diet (HFD) comprising 58% of calories from fat (D12331; Research Diets, New Brunswick, N.J.) and each group of mice contained 8 animals per group. The average body weight was ˜50 g and the mice were ˜6 months old males. Body weight and food intake were measured on the days that peptide or vehicle control was administered to the mice. Fasting blood glucose levels were measured repeatedly.
# diabetic mice [3] = test: as above; format: in vivo; conditions: four days; for weight loss: daily or twice a day, FIG. 14B
# GIP receptor [4] = target: T3, GIP receptor (Homo sapiens, UniProt P48546); test: cAMP synthesis luciferase reporter assay in HEK293 cells, GIP receptor; format: cell-based; conditions: read-out: Normalized GIP EC50 (nM) MEAN; Table 4
# T3 construct: expressed in transfected cells; host or cells: HEK293
# T3 sequence (P48546 22-466): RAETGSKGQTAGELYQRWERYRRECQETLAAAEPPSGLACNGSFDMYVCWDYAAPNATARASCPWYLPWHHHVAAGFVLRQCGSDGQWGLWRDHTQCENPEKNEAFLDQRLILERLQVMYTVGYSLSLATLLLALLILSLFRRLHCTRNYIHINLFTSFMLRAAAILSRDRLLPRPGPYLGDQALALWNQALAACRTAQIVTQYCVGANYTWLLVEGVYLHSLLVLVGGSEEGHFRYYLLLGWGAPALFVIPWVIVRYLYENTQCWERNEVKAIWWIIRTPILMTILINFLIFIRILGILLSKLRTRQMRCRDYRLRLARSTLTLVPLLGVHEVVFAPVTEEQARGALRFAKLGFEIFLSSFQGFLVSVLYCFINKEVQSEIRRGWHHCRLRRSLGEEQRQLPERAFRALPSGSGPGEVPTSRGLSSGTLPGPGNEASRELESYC
# Source text: as §1
# [5] = particularly at physiological pH; cited from earlier work
# GIP receptor [6] = target: T3, GIP receptor; conditions: general statement; cited from earlier work
molecule,measurement,setting,value
C[C@@H](O)[C@H](NC(=O)CNC(=O)[C@H](CCCNC(=N)N)NC(=O)[C@H](CO)NC(=O)[C@H](Cc1c[nH]cn1)NC(=O)[C@@H](N)Cc1ccc(NC(=O)CNC(=O)CN)cc1)C(=O)N[C@@H](Cc1ccccc1)C(N)=O,t1/2,"[1]; Table 2, result in words, PBS",No cleavage
C[C@@H](O)[C@H](NC(=O)CNC(=O)[C@H](CCCNC(=N)N)NC(=O)[C@H](CO)NC(=O)[C@H](Cc1c[nH]cn1)NC(=O)[C@@H](N)Cc1ccc(NC(=O)CNC(=O)CO)cc1)C(=O)N[C@@H](Cc1ccccc1)C(N)=O,t1/2,"[1]; Table 2, result in words, PBS",No cleavage
CC(C)=C(N)C(=O)N1CCC[C@H]1C(=O)N[C@@H](Cc1c[nH]cn1)C(=O)N[C@@H](CO)C(=O)N[C@@H](CCCNC(=N)N)C(=O)NCC(=O)N[C@H](C(=O)N[C@@H](Cc1ccccc1)C(N)=O)[C@@H](C)O,t1/2,[1]; buffer,No cleavage
C[C@@H](O)[C@H](NC(=O)CNC(=O)[C@H](CCCNC(=N)N)NC(=O)[C@H](CO)NC(=O)[C@H](Cc1c[nH]cn1)NC(=O)[C@@H]1CCCN1C(=O)[C@@H](O)Cc1ccccc1)C(=O)N[C@@H](Cc1ccccc1)C(N)=O,t1/2,[1]; buffer,No cleavage
C[C@@H](O)[C@H](NC(=O)CNC(=O)[C@H](CCCNC(=N)N)NC(=O)[C@H](CO)NC(=O)[C@H](Cc1c[nH]cn1)NC(=O)[C@@H]1CCCN1C(=O)CO)C(=O)N[C@@H](Cc1ccccc1)C(N)=O,t1/2,[1]; buffer,No cleavage
"C[C@@H](O)[C@H](NC(=O)CNC(=O)[C@H](CCCNC(=N)N)NC(=O)[C@H](CO)NC(=O)[C@H](Cc1c[nH]cn1)NC(=O)[C@@H]1CCCN1C(=O)[C@@H]1CCCN1)C(=O)N[C@@H](Cc1ccccc1)C(N)=O [Table 3 no. 8: P, P, H-SRGTF-NH2]",t1/2,[1]; buffer,No cleavage
"C[C@@H](O)[C@H](NC(=O)CNC(=O)[C@H](CCCNC(=N)N)NC(=O)[C@H](CO)NC(=O)[C@H](Cc1c[nH]cn1)NC(=O)[C@H]1CCCN1C(=O)[C@@H]1CCCN1)C(=O)N[C@@H](Cc1ccccc1)C(N)=O [Table 3 no. 12: P, d-P, H-SRGTF-NH2]",t1/2,[1]; buffer,No cleavage
"C[C@@H](O)[C@H](NC(=O)CNC(=O)[C@H](CCCNC(=N)N)NC(=O)[C@H](CO)NC(=O)[C@H](Cc1c[nH]cn1)NC(=O)[C@@H]1CCCN1C(=O)[C@H]1CCCN1)C(=O)N[C@@H](Cc1ccccc1)C(N)=O [Table 3 no. 13: d-P, P, H-SRGTF-NH2]",t1/2,[1]; buffer,No cleavage
"CNC(C)(C)C(=O)N1CCC[C@H]1C(=O)N[C@@H](Cc1c[nH]cn1)C(=O)N[C@@H](CO)C(=O)N[C@@H](CCCNC(=N)N)C(=O)NCC(=O)N[C@H](C(=O)N[C@@H](Cc1ccccc1)C(N)=O)[C@@H](C)O [Table 3 no. 19: N—Me-Aib, P, H-SRGTF-NH2]",half-life,[1]; buffer,> 20.8 days
"APHSRGTF-NH2 [Table 3 no. 5: A, P, H-SRGTF-NH2]",t1/2,[1]; buffer,No cleavage
CIU-004: XEGTFTSDVSSYLEEQAAKEFIAWLVKGGPSSGAPPPS (SEQ ID NO: 1945); C(S-S)—CH2CH2CH2-B^1 Insulin (conjugate chemistry not built),EC50,GLP-1 receptor,7.96 nM
same,EC50,insulin receptor (IR-B),0.59 nM
CIU-012: HXEGTFTSDUSSYLEEQAAKEFIAWLVKGGPSSGAPPPSG (SEQ ID NO: 1953); C(S-S)—CH2CH2CH2-B^1 Insulin,blood glucose levels and duration of action,diabetic mice [2],demonstrate activity in reducing blood glucose levels and demonstrate an extended duration of action relative to native insulin
CIU-013: HXEGTFTSDVSSYLEEQAAKEFIAWLVKGGPSSGAPPPSGU (SEQ ID NO: 1954); C(S-S)—CH2CH2CH2-B^1 Insulin,lowering blood glucose,"diabetic mice [2]; 5, 15 or 20 nmoles/kg, FIG. 11B",all doses of the compound are effective in lowering blood glucose
same,food intake,diabetic mice [2]; FIG. 13,suppressing food intake
same,blood glucose levels and duration of action,diabetic mice [2],demonstrate activity in reducing blood glucose levels and demonstrate an extended duration of action relative to native insulin
same,blood glucose,"diabetic mice [2]; daily or 2× a day, one fifth the dosage of the pegylated insulin, FIG. 14D",would appear to not be as effective as insulin
same,24 hour blood glucose,"diabetic mice [2]; second administration at 6 hours, 10 nmole/kg(×2), FIG. 12B",about 100 mg/dL
same,food intake,diabetic mice [3]; FIG. 14C,suppresses food intake relative to the administration of the pegylated insulin analog
same,weight loss,diabetic mice [3],produced significant weight loss
CIU-021: HXEGTFTSDUSSYLEEQAAKEFIAWLVKGGPSSGAPPPSG (SEQ ID NO: 1958); Pen(S-S)—CH2CH2CH2-B^1 Insulin,blood glucose levels and duration of action,diabetic mice [2],demonstrate activity in reducing blood glucose levels and demonstrate an extended duration of action relative to native insulin
CIU-26: pegylated native insulin (20 K PEG linked to the B29 side chain) [reference compound],food intake,diabetic mice [2]; FIG. 13,does not
same,food intake,diabetic mice [2]; FIG. 16C,did not
same,food intake,"diabetic mice [2]; seven days, FIG. 17C",does not
same,body weight,diabetic mice [2]; seven days,not
same,weight loss,diabetic mice [3],failed to induce weight loss
CIU-037: HXEGTFTSDVSSYLEEQAAREFIAWLVRGGPSSGAPPPSK(20K PEG) (SEQ ID NO: 1966); C(S-S)—CH2CH2CH2-B^1 Insulin,blood glucose levels,"diabetic mice [2]; 1, 2.5 or 5 nmol/kg, seven days, FIG. 17B",improved blood glucose levels achieved relative to pegylated insulin
same,blood glucose levels,"diabetic mice [2]; 5, 10 or 20 nmol/kg, FIG. 16B",blood glucose levels inversely proportional to the dose administered
same,fat mass and lean mass,diabetic mice [2]; FIG. 17E,comes from fat mass and not lean mass
same,food intake,"diabetic mice [2]; seven days, FIG. 17C",suppress food intake
same,body weight,diabetic mice [2]; seven days,induces loss in body weight
CIU-055: HXEGTFTSDVSSYLEEQAAREFIAWLVRGGPSSGAPPPSK(20K PEG) (SEQ ID NO: 1974); C(S-S)—CH2CH2CH2-B^1 DesDi,EC50,insulin receptor (IR-B),1140 nM
"CIU-123: HXEGTFTSDUSIYLDKQAAXEFVNWLLAGGPSSGAPPPS (SEQ ID NO: 2013); C(S-S)—CH2CH2CH2-B^1Desdi (H[Aib]EGTFTSDK([γGlu-Palmitoyl])SIYLDKQAA[Aib]EFVNWLLAGGPSSGAPPPS; also: disulfide-linked propyl to B1 of desdi insulin, site not given here)",EC50,GLP-1 receptor,0.0032 nM
same,EC50,GIP receptor [4],0.0036 nM
"CIU-146: YXEGTFTSDU2SIYLDKQAAXEFVNWLLAGGPSSGAPPPS (SEQ ID NO: 2014); C(S-S)—CH2CH2CH2-B^1Desdi (Y[Aib]EGTFTSDKSIYLDKQAA[Aib]EFVNWLLAGGPSSGAPPPS; not fully specified (residue 10, C-terminus); also: disulfide-linked propyl to B1 of desdi insulin, site not given here)",EC50,GIP receptor [4],0.0014 nM
"CPHSRGTF-NH2 [Table 3 no. 6: C, P, H-SRGTF-NH2]",t1/2,[1]; buffer,No cleavage
"EPHSRGTF-NH2 [Table 3 no. 10: E, P, H-SRGTF-NH2]",t1/2,[1]; buffer,No cleavage
"FPHSRGTF-NH2 [Table 3 no. 1: F, P, H-SRGTF-NH2]",t1/2,[1]; buffer,No cleavage
"GPHSRGTF-NH2 [Table 3 no. 3: G, P, H-SRGTF-NH2]",t1/2,[1]; buffer,No cleavage
"KPHSRGTF-NH2 [Table 3 no. 9: K, P, H-SRGTF-NH2]",t1/2,"[1]; Table 3, words or unit not given, PBS",No cleavage
Native glucagon: peptide consisting of the sequence of SEQ ID NO: 701,solubility in aqueous solution,[5],poor solubility in aqueous solution
same,activation of the GIP receptor,GIP receptor [6],does not activate the GIP receptor
SEQ ID NO: 128: glucagon analog substituting the native glutamine at position 3 with glutamic acid,selectivity for the GLP-1 receptor,GLP-1 receptor; versus glucagon receptor,tenfold
"SPHSRGTF-NH2 [Table 3 no. 7: S, P, H-SRGTF-NH2]",t1/2,[1]; buffer,No cleavage

# Source: patent US10232020B2, “Incretin-insulin conjugates” (priority 2014, dated 2019)
